{
  "source": "paper PMC8909834",
  "about": "“An Orally Bioavailable and Highly Efficacious Inhibitor of CDK9/FLT3 for the Treatment of Acute Myeloid Leukemia” (Cancers, 2022)",
  "assay_in_all_cases": "Kinase Hotspot radiolabel assay",
  "format_in_all_cases": "biochemical",
  "conditions_in_all_cases": "read-out: % Residual Activity",
  "key": {"[1]": {"target": "T1, AKT2 (Homo sapiens, UniProt P31751)", "T1 construct": "purchased Reaction Biology Corporation (Kinase HotSpot)", "T1 sequence (P31751 whole entry)": "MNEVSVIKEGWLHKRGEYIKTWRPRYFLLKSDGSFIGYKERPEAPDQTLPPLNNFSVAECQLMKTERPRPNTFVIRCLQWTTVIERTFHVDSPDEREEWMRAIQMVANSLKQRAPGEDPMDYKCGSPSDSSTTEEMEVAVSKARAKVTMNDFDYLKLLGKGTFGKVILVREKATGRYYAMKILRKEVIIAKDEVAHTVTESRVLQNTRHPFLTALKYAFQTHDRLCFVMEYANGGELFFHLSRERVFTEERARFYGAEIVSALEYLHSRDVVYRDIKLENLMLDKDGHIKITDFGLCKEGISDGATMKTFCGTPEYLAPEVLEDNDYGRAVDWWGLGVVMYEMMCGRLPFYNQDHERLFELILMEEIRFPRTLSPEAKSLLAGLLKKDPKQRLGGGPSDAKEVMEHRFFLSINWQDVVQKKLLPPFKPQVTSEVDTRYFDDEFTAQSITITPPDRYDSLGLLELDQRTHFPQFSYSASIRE", "summary_of_the_method": "(§1)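 Percent inhibition is from a radiometric Hotspot assay at 1 µM compound. The panel spans 369 kinases, and Ki measurement follows for those inhibited over 90%.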"}, "[2]": {"target": "T2, AKT3 (Homo sapiens, UniProt Q9Y243)", "T2 construct": "purchased Reaction Biology Corporation (Kinase HotSpot)", "summary_of_the_method": "as §1"}, "[3]": {"target": "T3, ALK1/ACVRL1 (Homo sapiens, UniProt P37023)", "T3 construct": "purchased Reaction Biology Corporation (Kinase HotSpot)", "summary_of_the_method": "as §1"}, "[4]": {"target": "T4, BTK (Homo sapiens, UniProt Q06187)", "T4 construct": "purchased Reaction Biology Corporation (Kinase HotSpot)", "summary_of_the_method": "as §1"}, "[5]": {"target": "T5, CAMK1b (Homo sapiens, UniProt Q6P2M8)", "T5 construct": "purchased Reaction Biology Corporation (Kinase HotSpot)", "summary_of_the_method": "as §1"}, "[6]": {"target": "T6, CDK2/cyclin E (Homo sapiens, UniProt P24941)", "T6 construct": "purchased Reaction Biology Corporation (Kinase HotSpot)", "summary_of_the_method": "as §1"}, "[7]": {"target": "T7, CDK9/cyclin T2 (Homo sapiens, UniProt P50750)", "T7 construct": "purchased Reaction Biology Corporation (Kinase HotSpot)", "summary_of_the_method": "as §1"}, "[8]": {"target": "T8, CK1g3 (Homo sapiens, UniProt Q9Y6M4)", "T8 construct": "purchased Reaction Biology Corporation (Kinase HotSpot)", "summary_of_the_method": "as §1"}, "[9]": {"target": "T9, DYRK3 (Homo sapiens, UniProt O43781)", "T9 construct": "purchased Reaction Biology Corporation (Kinase HotSpot)", "T9 sequence (O43781 whole entry)": "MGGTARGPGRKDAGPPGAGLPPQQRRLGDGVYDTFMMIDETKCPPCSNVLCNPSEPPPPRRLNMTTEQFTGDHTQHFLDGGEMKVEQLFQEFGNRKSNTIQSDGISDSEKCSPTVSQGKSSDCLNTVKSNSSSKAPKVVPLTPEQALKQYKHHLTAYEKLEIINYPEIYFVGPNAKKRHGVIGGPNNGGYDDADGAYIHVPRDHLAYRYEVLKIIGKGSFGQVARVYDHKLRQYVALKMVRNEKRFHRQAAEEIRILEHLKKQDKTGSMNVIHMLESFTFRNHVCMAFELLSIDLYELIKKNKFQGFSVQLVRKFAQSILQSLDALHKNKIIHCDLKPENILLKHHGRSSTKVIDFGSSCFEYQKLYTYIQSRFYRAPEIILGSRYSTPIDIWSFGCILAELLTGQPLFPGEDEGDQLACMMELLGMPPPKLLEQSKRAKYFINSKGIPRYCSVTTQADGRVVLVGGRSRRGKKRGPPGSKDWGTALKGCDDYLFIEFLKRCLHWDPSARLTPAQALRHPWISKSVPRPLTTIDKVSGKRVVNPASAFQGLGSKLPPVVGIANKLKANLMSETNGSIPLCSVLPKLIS", "summary_of_the_method": "as §1"}, "[10]": {"target": "T10, EPHA2 (Homo sapiens, UniProt P29317)", "T10 construct": "purchased Reaction Biology Corporation (Kinase HotSpot)", "summary_of_the_method": "as §1"}, "[11]": {"target": "T11, ERBB4/HER4 (Homo sapiens, UniProt Q15303)", "T11 construct": "purchased Reaction Biology Corporation (Kinase HotSpot)", "summary_of_the_method": "as §1"}, "[12]": {"target": "T12, ERK7/MAPK15 (Homo sapiens, UniProt Q8TD08)", "T12 construct": "purchased Reaction Biology Corporation (Kinase HotSpot)", "summary_of_the_method": "as §1"}, "[13]": {"target": "T13, ERN1/IRE1 (Homo sapiens, UniProt O75460)", "T13 construct": "purchased Reaction Biology Corporation (Kinase HotSpot)", "T13 sequence (O75460 19-977)": "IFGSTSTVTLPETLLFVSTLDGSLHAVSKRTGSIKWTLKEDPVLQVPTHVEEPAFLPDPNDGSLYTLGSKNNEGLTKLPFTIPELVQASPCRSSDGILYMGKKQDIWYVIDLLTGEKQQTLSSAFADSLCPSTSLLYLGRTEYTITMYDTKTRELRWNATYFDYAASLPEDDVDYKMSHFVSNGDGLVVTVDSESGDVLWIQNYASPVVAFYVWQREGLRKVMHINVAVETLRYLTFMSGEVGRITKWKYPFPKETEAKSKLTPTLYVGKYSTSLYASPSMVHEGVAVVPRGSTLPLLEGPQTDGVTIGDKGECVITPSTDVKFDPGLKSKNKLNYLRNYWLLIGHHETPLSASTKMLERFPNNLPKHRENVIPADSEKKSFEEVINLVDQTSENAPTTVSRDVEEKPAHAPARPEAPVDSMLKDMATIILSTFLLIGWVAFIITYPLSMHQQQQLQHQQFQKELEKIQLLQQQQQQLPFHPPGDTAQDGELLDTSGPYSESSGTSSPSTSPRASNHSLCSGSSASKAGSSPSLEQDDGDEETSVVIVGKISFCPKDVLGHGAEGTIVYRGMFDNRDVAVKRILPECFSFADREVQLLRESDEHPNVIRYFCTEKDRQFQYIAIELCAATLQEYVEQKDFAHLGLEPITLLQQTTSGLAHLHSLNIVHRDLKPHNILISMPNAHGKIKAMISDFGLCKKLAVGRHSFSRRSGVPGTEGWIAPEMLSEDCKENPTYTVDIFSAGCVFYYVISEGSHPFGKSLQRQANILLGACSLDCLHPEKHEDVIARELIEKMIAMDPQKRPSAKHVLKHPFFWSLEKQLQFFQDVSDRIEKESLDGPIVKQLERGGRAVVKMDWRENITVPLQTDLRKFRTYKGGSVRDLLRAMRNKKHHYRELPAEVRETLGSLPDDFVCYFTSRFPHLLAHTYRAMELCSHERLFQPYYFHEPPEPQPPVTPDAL", "summary_of_the_method": "as §1"}, "[14]": {"target": "T14, KSR1 (Homo sapiens, UniProt Q8IVT5)", "T14 construct": "purchased Reaction Biology Corporation (Kinase HotSpot)", "summary_of_the_method": "as §1"}, "[15]": {"target": "T15, MLK4 (Homo sapiens, UniProt Q5TCX8)", "T15 construct": "purchased Reaction Biology Corporation (Kinase HotSpot)", "summary_of_the_method": "as §1"}, "[16]": {"target": "T16, MSK1/RPS6KA5 (Homo sapiens, UniProt O75582)", "T16 construct": "purchased Reaction Biology Corporation (Kinase HotSpot)", "T16 sequence (O75582 whole entry)": "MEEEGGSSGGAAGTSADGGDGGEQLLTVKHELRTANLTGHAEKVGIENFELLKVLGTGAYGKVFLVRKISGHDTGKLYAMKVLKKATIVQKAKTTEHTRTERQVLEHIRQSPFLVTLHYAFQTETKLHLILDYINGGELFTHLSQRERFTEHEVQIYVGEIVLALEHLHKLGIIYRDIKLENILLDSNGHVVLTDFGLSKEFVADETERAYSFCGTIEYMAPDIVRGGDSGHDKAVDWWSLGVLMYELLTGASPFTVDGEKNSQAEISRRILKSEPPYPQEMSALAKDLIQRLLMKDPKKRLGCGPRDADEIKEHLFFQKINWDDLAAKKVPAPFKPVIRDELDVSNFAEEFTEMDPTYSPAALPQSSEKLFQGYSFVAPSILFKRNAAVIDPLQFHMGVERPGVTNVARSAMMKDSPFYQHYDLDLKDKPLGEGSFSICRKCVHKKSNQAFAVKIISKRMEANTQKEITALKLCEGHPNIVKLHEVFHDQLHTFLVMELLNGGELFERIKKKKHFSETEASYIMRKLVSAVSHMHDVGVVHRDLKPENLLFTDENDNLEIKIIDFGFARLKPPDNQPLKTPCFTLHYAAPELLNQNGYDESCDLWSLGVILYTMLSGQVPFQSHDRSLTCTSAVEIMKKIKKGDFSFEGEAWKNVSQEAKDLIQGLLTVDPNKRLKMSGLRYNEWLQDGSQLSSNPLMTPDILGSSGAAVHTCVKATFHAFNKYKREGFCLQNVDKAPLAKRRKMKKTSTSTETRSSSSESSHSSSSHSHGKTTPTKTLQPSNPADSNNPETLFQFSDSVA", "summary_of_the_method": "as §1"}, "[17]": {"target": "T17, MST2/STK3 (Homo sapiens, UniProt Q13188)", "T17 construct": "purchased Reaction Biology Corporation (Kinase HotSpot)", "summary_of_the_method": "as §1"}, "[18]": {"target": "T18, NEK11 (Homo sapiens, UniProt Q8NG66)", "T18 construct": "purchased Reaction Biology Corporation (Kinase HotSpot)", "summary_of_the_method": "as §1"}, "[19]": {"target": "T19, NEK3 (Homo sapiens, UniProt P51956)", "T19 construct": "purchased Reaction Biology Corporation (Kinase HotSpot)", "summary_of_the_method": "as §1"}, "[20]": {"target": "T20, PDK1/PDPK1 (Homo sapiens, UniProt O15530)", "T20 construct": "purchased Reaction Biology Corporation (Kinase HotSpot)", "summary_of_the_method": "as §1"}, "[21]": {"target": "T21, PKCb2 (Homo sapiens, UniProt P05771)", "T21 construct": "purchased Reaction Biology Corporation (Kinase HotSpot)", "summary_of_the_method": "as §1"}, "[22]": {"target": "T22, PKCepsilon (Homo sapiens, UniProt Q02156)", "T22 construct": "purchased Reaction Biology Corporation (Kinase HotSpot)", "summary_of_the_method": "as §1"}, "[23]": {"target": "T23, PKCg (Homo sapiens, UniProt P05129)", "T23 construct": "purchased Reaction Biology Corporation (Kinase HotSpot)", "summary_of_the_method": "as §1"}, "[24]": {"target": "T24, PKCmu/PRKD1 (Homo sapiens, UniProt Q15139)", "T24 construct": "purchased Reaction Biology Corporation (Kinase HotSpot)", "summary_of_the_method": "as §1"}, "[25]": {"target": "T25, RSK3 (Homo sapiens, UniProt Q15349)", "T25 construct": "purchased Reaction Biology Corporation (Kinase HotSpot)", "summary_of_the_method": "as §1"}, "[26]": {"target": "T26, SBK1 (Homo sapiens, UniProt Q52WX2)", "T26 construct": "purchased Reaction Biology Corporation (Kinase HotSpot)", "summary_of_the_method": "as §1"}, "[27]": {"target": "T27, SIK3 (Homo sapiens, UniProt Q9Y2K2)", "T27 construct": "purchased Reaction Biology Corporation (Kinase HotSpot)", "T27 sequence (Q9Y2K2 whole entry)": "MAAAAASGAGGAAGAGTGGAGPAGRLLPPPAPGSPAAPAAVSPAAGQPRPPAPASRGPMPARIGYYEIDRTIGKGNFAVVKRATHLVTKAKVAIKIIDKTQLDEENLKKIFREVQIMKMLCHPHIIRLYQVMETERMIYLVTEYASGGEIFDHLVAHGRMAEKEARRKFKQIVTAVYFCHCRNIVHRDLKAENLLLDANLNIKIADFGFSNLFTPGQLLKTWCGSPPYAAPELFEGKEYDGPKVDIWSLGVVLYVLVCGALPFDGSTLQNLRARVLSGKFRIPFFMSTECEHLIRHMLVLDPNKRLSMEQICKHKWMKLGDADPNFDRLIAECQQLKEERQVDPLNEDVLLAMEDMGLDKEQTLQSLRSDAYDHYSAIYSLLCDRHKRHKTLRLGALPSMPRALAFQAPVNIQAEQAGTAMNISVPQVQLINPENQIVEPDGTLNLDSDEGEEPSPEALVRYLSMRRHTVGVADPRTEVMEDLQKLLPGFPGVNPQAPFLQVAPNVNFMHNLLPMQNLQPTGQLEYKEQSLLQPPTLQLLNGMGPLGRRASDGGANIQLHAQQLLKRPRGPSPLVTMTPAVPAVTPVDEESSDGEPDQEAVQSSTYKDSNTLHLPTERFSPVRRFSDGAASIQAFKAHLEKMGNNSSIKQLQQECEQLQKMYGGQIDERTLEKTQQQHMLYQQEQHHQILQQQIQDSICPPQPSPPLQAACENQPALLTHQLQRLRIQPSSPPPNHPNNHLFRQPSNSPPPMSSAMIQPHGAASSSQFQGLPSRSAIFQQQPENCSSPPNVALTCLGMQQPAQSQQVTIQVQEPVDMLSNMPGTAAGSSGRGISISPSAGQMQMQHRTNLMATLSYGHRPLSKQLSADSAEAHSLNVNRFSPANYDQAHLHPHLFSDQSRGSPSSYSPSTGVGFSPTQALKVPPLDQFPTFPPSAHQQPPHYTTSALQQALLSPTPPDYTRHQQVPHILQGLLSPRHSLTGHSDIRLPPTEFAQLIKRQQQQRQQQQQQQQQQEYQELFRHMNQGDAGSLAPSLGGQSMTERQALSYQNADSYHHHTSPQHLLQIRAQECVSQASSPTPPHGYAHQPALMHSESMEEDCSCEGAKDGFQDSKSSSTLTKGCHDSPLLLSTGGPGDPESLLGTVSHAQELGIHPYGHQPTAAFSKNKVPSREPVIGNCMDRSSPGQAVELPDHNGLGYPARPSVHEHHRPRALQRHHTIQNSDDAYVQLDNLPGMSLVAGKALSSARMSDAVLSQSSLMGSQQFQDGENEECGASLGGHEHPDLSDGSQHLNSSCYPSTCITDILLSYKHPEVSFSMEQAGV", "summary_of_the_method": "as §1"}, "[28]": {"target": "T28, SRPK1 (Homo sapiens, UniProt Q96SB4)", "T28 construct": "purchased Reaction Biology Corporation (Kinase HotSpot)", "summary_of_the_method": "as §1"}, "[29]": {"target": "T29, TAOK2/TAO1 (Homo sapiens, UniProt Q9UL54)", "T29 construct": "purchased Reaction Biology Corporation (Kinase HotSpot)", "summary_of_the_method": "as §1"}, "[30]": {"target": "T30, TRKA (Homo sapiens, UniProt P04629)", "T30 construct": "purchased Reaction Biology Corporation (Kinase HotSpot)", "T30 sequence (P04629 33-796)": "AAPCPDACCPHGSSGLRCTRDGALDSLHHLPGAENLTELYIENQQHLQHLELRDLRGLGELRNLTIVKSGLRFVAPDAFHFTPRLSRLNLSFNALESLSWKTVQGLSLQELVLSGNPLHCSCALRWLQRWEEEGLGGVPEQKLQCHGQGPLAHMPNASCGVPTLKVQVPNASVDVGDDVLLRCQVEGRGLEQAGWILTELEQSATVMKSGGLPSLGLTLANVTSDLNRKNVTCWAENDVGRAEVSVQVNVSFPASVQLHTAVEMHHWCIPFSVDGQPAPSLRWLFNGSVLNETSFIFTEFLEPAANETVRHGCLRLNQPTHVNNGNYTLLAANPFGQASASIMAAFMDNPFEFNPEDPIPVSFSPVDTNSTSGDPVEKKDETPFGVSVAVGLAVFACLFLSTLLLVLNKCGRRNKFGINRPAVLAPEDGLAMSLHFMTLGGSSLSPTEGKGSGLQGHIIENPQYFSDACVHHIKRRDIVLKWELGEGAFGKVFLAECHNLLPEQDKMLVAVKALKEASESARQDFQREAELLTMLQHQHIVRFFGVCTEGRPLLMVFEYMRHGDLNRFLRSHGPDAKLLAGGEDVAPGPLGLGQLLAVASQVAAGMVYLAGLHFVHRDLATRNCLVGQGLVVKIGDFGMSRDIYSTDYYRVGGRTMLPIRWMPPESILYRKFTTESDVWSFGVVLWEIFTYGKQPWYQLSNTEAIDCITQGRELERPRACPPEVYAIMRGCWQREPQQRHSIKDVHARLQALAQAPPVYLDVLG", "summary_of_the_method": "as §1"}},
  "data": [
    {"smiles": "Cc1cnc(N[C@H]2CC[C@H](N)CC2)nc1-c1cnc2ccc(-c3ccccc3)cn12", "note": "[CDDD11-8]", "values": [
      {"measurement": "remaining activity at 1 µM", "setting": "[1]", "value": 116, "unit": "%"},
      {"measurement": "remaining activity at 1 µM", "setting": "[2]", "value": 77.2, "unit": "%"},
      {"measurement": "remaining activity at 1 µM", "setting": "[3]", "value": 96.9, "unit": "%"},
      {"measurement": "remaining activity at 1 µM", "setting": "[4]", "value": 87, "unit": "%"},
      {"measurement": "remaining activity at 1 µM", "setting": "[5]", "value": 96.1, "unit": "%"},
      {"measurement": "remaining activity at 1 µM", "setting": "[6]", "value": 55.6, "unit": "%"},
      {"measurement": "remaining activity at 1 µM", "setting": "[7]", "value": 2.35, "unit": "%"},
      {"measurement": "remaining activity at 1 µM", "setting": "[8]", "value": 63.2, "unit": "%"},
      {"measurement": "remaining activity at 1 µM", "setting": "[9]", "value": 23.2, "unit": "%"},
      {"measurement": "remaining activity at 1 µM", "setting": "[10]", "value": 86.4, "unit": "%"},
      {"measurement": "remaining activity at 1 µM", "setting": "[11]", "value": 96.9, "unit": "%"},
      {"measurement": "remaining activity at 1 µM", "setting": "[12]", "value": 66.4, "unit": "%"},
      {"measurement": "remaining activity at 1 µM", "setting": "[13]", "value": 41.8, "unit": "%"},
      {"measurement": "remaining activity at 1 µM", "setting": "[14]", "value": 92.3, "unit": "%"},
      {"measurement": "remaining activity at 1 µM", "setting": "[15]", "value": 112, "unit": "%"},
      {"measurement": "remaining activity at 1 µM", "setting": "[16]", "value": 61.6, "unit": "%"},
      {"measurement": "remaining activity at 1 µM", "setting": "[17]", "value": 15, "unit": "%"},
      {"measurement": "remaining activity at 1 µM", "setting": "[18]", "value": 100, "unit": "%"},
      {"measurement": "remaining activity at 1 µM", "setting": "[19]", "value": 92.8, "unit": "%"},
      {"measurement": "remaining activity at 1 µM", "setting": "[20]", "value": 105, "unit": "%"},
      {"measurement": "remaining activity at 1 µM", "setting": "[21]", "value": 121, "unit": "%"},
      {"measurement": "remaining activity at 1 µM", "setting": "[22]", "value": 54.7, "unit": "%"},
      {"measurement": "remaining activity at 1 µM", "setting": "[23]", "value": 87.9, "unit": "%"},
      {"measurement": "remaining activity at 1 µM", "setting": "[24]", "value": 53.1, "unit": "%"},
      {"measurement": "remaining activity at 1 µM", "setting": "[25]", "value": 45.6, "unit": "%"},
      {"measurement": "remaining activity at 1 µM", "setting": "[26]", "value": 102, "unit": "%"},
      {"measurement": "remaining activity at 1 µM", "setting": "[27]", "value": 59.9, "unit": "%"},
      {"measurement": "remaining activity at 1 µM", "setting": "[28]", "value": 94, "unit": "%"},
      {"measurement": "remaining activity at 1 µM", "setting": "[29]", "value": 45, "unit": "%"},
      {"measurement": "remaining activity at 1 µM", "setting": "[30]", "value": 14.2, "unit": "%"}
    ]}
  ]
}
